Tested on: infected lesion (Candida albicans, left thigh)
Type: in vivo, mice (C57/BL)
Conditions: Candida-inoculated mice, day 8; GMCSF intramuscularly 3 days before PET; FDG 2 mCi/Kg via tail vein, PET 3 hours later; p<0.05 vs pre-GMCSF
Method: Candida albicans was suspended in saline to achieve a concentration of 2.5×10^9 yeast cells/ml. Three mice (C57/BL, Jackson Laboratories, Bar Harbor, Me.) were injected intramuscularly in the left thigh with 5×10^8 Candida albicans cells suspended in 0.2 ml of saline. The right thigh was injected with 0.2 ml of saline as a control.
Imaging of the animals was performed on days 5 and 8 after Candida inoculation. […] GMCSF was administered intramuscularly immediately after the first PET images were obtained (3 days prior to the second PET imaging).

GMCSF: granulocyte-macrophage colony stimulating factor, immune modulator; FDA approved under the tradename Leukine
FDG uptake within the infected lesion, post-GMCSF: 8150 nCi/cc
